Source: patent US11098055B2, “Ester ACC inhibitors and uses thereof” (Gilead Apollo, LLC, priority 2015, dated 2021)
≈ marks a conversion by molar mass, not a printed value.

Experiments:
hACC2 = hACC2 (Homo sapiens, UniProt O00763); assay: In vitro ACC2 inhibition assay (ADP-Glo), human ACC2; type: biochemical
Method: (§1) An exemplary procedure for the in vitro ACC inhibition assay, which can be used to determine the inhibitory action of compounds of the invention toward either human (hACC2) or fungal (fACC2) ACC2, follows. The ADP-Glo™ Kinase Assay kit from Promega was used. The ADP-Glo™ Kinase Assay is a luminescent ADP detection assay to measure enzymatic activity by quantifying the amount of ADP produced during an enzyme reaction. The assay is performed in two steps; first, after the enzyme reaction, an equal volume of ADP-Glo™ Reagent is added to terminate the reaction and deplete the remaining ATP. Second, the Kinase Detection Reagent is added to simultaneously convert ADP to ATP and allow the newly synthesized ATP to be measured using a luciferase/luciferin reaction. Luminescence can be correlated to ADP concentrations by using an ATP-to-ADP conversion curve. The detailed procedure is as follows. 50 μL of the compound being tested (600 μM in DMSO) was added to a 384-well dilution plate. The compound was diluted 1:3 in succession in DMSO for each row for 11 wells. 0.5 μL ACC2 working solution was added to 384-well white Optiplate assay plate. 0.5 μL diluted compound solution in each column from step 2 was added to assay plate, each row containing 2 replicates. For the last 2 rows, 0.5 μL negative control (DMSO) was added in one row and 0.5 μL positive control (compound I-97) in the other. The plates were incubated at room temperature for 15 minutes. 5 μL substrate working solution was added to each well to initiate reaction. Final ACC2 reaction concentrations consist of: 5 nM ACC2, 20 μM ATP, 20 μM acetyl-CoA, 12 mM NaHCO3, 0.01% Brij35, 2 mM DTT, 5% DMSO, test compound concentrations: 30 μM, 10 μM, 3.33 μM, 1.11 μM, 0.37 μM, 0.123 μM, 0.0411 μM, 0.0137 μM, 0.00457 μM, 0.00152 μM, and 0.00051 μM. Plates were incubated at room temperature for 60 minutes. 10 μL ADP glo reagent was added. Plates were incubated at room temperature for 40 minutes. 20 μL kinase detection reagent was added. Plates were incubated at room temperature for 40 minutes, and then read on a Perkin Elmer EnVision 2104 plate reader for luminescence as Relative Light Units (RLU).
(§2) Data for each concentration, as well as the positive and negative controls, were averaged, and the standard deviation calculated. Percent inhibition was calculated by the formula: 100×(average negative control−compound)/(average negative control−average positive control). The IC50 for each compound was calculated by fitting the data with a non-linear regression equation: Y=Bottom+(Top−Bottom)/(1+10^((Log IC50−X)*HillSlope)), where X is the log of compound concentration and Y is percent inhibition.

fACC2 = fACC2 (UniProt Q00955); assay: In vitro ACC2 inhibition assay (ADP-Glo), fungal ACC2; type: biochemical
fACC2, sequence (Q00955 whole entry): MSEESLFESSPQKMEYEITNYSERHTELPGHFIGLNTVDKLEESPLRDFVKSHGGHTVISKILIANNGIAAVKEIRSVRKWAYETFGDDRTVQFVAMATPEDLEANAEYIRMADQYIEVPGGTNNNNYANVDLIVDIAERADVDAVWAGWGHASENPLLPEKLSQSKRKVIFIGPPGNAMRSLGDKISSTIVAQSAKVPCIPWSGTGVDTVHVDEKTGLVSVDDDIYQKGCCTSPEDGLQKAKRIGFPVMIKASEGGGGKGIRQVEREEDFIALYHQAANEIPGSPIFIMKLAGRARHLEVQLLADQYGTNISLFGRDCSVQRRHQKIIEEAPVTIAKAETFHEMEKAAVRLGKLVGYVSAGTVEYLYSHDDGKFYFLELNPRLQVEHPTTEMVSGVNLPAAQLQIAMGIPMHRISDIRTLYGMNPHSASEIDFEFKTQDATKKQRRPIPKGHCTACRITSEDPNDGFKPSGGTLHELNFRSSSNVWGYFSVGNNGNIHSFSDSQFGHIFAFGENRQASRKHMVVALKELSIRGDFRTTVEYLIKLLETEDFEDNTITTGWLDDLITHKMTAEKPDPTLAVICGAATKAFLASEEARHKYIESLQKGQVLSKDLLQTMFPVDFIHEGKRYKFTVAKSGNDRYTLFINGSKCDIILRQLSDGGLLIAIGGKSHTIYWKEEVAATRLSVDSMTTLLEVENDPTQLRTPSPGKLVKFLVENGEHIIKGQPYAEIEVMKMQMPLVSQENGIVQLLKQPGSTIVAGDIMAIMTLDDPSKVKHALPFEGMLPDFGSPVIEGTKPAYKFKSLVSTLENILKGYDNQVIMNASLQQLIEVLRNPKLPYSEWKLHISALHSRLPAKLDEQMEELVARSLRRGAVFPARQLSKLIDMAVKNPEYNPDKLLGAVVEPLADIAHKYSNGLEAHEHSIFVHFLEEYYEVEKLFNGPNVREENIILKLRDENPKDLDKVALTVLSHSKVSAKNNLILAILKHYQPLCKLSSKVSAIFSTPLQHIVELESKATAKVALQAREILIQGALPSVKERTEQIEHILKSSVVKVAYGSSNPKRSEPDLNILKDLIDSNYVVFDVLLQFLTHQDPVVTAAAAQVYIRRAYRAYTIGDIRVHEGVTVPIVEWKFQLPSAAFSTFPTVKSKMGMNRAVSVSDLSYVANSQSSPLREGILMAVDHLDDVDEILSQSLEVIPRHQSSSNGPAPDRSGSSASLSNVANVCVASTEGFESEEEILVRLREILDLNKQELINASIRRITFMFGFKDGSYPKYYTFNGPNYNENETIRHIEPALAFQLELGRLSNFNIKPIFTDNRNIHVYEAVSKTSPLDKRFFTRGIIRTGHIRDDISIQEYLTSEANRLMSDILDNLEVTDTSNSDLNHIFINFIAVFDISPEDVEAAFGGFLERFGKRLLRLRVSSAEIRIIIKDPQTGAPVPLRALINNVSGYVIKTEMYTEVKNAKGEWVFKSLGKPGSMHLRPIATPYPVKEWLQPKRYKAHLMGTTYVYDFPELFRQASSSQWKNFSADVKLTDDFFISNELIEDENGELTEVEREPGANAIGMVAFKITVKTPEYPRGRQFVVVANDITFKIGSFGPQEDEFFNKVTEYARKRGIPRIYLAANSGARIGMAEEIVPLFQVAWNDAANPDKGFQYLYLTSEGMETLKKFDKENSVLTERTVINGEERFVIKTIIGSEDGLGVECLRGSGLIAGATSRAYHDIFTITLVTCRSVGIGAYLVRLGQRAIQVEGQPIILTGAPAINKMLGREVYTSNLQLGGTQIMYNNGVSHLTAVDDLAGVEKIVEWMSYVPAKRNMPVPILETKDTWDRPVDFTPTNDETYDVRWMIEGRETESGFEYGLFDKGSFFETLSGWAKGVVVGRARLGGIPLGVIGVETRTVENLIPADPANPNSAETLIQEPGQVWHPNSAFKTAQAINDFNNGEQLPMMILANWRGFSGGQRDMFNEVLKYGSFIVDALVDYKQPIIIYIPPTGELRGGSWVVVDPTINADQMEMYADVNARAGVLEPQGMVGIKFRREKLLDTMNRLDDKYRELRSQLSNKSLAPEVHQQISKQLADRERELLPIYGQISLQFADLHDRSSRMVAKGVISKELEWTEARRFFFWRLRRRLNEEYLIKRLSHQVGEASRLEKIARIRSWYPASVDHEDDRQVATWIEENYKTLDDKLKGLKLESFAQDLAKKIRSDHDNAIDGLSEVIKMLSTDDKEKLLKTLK
Method: as §1, §2

C. albicans ATCC 90028 = assay: Anti-Fungal (Candida) Activity Assay, broth microtiter MIC; type: cell-based; conditions: ATCC90028, 48 h, 3 replicates, MIC read at 48 h
Method: (§3) Compounds of the present invention were evaluated in an Anti-Fungal Activity Assay. An exemplary procedure for the assay, which measures the susceptibility of various Candida species to anti-fungal compounds, follows. Compounds to be tested (including fluconazole and amphotericin B) were dissolved in DMSO to obtain a solution having a concentration of 1 mg/mL. These stock solutions were sterile filtered using a 0.22 um nylon syringe filter, then diluted in sterile water to achieve a final concentration of 128 μg/mL.
(§4) All species were grown from frozen stock by directly plating on to freshly prepared Sabouraud Dextrose agar (BD, Difco) and incubated overnight in ambient air at 35° C. for 24 h. A direct suspension was prepared in RPMI 1640+MOPS (Lonza, Biowhittaker) by taking individual colonies from the overnight cultures using sterile swabs soaked in sterile saline. The concentration of the suspension was determined using pre-determined standard curves. These suspensions were then diluted down to 5×10^3 CFU/mL to achieve a final concentration of 2.5×10^3 CFU/mL once added to the microtiter plate as per CLSI guidelines (M27-A3, Vol. 28 No. 14).
(§5) Broth microtiter MIC challenge plates were prepared following CLSI guidelines (M27-A3, Vol. 28 No. 14). The original CLSI guidelines focused on reading Candida MICs after 48 h of incubation. As reading after only 24 h offers a clear advantage of patient care, QC limits are being established for all drugs at 24 h. That being said there are no known interpretive breakpoints for amphotericin B at 24 h and the current fluconazole interpretive breakpoints are based on a 48 h reading. The MIC for the test compounds were recorded at 48 h. All MIC determinations were achieved by visually comparing the growth found in the antibiotic challenged wells to that of the growth control.

[1] = tested on: C. parapsilosis ATCC 22019; assay: as above; type: cell-based; conditions: Lodderomyces parapsilosis, ATCC22019, 48 h, 3 replicates, MIC read at 48 h
Method: as §3, §4, §5

C. krusei ATCC 6258 = assay: as above; type: cell-based, Candida krusei; conditions: Pichia kudriavzevii, ATCC6258, 48 h, 3 replicates, MIC read at 48 h
Method: as §3, §4, §5

hACC2, sequence (O00763 whole entry): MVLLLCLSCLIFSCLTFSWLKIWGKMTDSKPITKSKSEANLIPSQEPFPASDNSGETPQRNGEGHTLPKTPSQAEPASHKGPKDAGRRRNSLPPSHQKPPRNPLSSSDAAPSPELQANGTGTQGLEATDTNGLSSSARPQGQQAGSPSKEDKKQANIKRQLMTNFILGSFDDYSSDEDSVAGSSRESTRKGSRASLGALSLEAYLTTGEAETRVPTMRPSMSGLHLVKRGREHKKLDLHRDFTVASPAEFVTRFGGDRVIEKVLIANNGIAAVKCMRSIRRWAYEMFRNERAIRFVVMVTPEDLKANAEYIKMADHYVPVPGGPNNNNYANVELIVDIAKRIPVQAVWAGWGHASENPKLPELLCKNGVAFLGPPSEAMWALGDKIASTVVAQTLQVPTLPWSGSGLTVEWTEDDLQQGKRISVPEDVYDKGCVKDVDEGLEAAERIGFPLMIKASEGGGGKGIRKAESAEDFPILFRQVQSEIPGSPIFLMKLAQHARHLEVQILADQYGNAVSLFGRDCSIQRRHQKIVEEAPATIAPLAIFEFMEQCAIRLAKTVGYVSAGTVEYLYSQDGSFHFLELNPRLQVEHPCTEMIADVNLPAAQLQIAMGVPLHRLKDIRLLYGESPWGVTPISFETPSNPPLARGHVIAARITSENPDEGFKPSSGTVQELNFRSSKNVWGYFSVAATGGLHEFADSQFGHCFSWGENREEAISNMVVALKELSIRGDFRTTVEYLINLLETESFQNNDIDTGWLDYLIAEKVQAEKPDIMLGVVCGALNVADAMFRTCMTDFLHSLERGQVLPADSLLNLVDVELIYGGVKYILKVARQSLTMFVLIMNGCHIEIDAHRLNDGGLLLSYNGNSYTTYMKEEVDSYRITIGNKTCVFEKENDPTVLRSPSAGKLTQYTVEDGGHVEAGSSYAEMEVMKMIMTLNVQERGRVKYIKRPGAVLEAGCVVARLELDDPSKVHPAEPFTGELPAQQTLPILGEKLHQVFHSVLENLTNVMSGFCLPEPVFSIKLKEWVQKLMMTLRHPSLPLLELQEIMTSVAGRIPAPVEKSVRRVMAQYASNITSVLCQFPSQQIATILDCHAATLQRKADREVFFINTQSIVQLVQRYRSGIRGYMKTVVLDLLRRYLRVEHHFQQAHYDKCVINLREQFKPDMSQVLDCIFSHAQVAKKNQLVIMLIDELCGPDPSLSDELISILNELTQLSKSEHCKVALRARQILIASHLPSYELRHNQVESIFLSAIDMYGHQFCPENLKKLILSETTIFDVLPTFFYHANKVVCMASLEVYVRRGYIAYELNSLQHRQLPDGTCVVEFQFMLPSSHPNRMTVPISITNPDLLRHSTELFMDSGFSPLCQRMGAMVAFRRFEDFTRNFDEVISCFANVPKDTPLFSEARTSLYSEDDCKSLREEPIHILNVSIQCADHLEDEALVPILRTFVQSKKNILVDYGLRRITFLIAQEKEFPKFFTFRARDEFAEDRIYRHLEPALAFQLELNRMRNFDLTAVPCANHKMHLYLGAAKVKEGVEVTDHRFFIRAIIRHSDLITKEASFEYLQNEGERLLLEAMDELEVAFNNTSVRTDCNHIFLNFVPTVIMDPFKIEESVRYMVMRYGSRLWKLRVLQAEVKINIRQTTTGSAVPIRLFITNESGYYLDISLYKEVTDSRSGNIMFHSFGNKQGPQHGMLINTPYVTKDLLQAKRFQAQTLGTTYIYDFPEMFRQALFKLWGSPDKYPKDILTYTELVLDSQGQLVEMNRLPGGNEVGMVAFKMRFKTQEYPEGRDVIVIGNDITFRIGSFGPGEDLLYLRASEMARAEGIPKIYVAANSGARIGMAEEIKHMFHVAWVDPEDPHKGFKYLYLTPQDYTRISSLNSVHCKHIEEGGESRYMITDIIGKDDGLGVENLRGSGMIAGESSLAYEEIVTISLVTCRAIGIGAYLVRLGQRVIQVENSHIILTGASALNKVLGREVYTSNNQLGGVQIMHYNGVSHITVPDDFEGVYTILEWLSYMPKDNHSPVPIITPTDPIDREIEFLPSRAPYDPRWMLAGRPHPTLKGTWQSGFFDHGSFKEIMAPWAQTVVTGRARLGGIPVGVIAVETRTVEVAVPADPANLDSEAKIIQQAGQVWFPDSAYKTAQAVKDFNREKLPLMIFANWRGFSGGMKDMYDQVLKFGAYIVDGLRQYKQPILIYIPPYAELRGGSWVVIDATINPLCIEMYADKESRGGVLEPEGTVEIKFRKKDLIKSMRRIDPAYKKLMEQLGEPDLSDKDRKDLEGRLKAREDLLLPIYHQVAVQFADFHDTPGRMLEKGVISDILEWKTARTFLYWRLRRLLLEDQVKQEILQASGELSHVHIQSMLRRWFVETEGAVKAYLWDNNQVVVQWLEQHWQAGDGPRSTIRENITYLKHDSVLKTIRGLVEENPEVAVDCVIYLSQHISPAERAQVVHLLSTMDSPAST

SMILES | IC50 (hACC2; Table 2a) | IC50 (hACC2; Table 2b (additional results)) | IC50 (fACC2; Table 2a) | IC50 (fACC2; Table 2b (additional results)) | MIC (C. albicans ATCC 90028; Table 3a) | MIC (C. albicans ATCC 90028; Table 3b (additional results)) | MIC ([1]; Table 3a) | MIC ([1]; Table 3b (additional results)) | MIC (C. krusei ATCC 6258; Table 3a) | MIC (C. krusei ATCC 6258; Table 3b (additional results))
CCOC(=O)c1sc2c(c1C)c(=O)n(C(C)(C)C(=O)NC(C)C)c(=O)n2C[C@H](OC(C)C)c1ccccc1OC [Compound I-9, (R)-ethyl 1-(2-isopropoxy-2-(2-methoxyphenyl)ethyl)-3-(1-(isopropylamino)-2-methyl-1-oxopropan-2-yl)-5-methyl-2,4-dioxo-1,2,3,4-tetrahydrothieno[2,3-d]pyrimidine-6-carboxylate] | 10 to 40 nM | 10 to 40 nM | 0.6 to 3 nM | 0.3 to 3 nM | 1.1 to 2 µg/mL (≈ 1.92 to 3.49 µM) | 1.1 to 2 µg/mL (≈ 1.92 to 3.49 µM) | 2.1 to 4 µg/mL (≈ 3.66 to 6.97 µM) | 2.1 to 4 µg/mL (≈ 3.66 to 6.97 µM) | 2.1 to 4 µg/mL (≈ 3.66 to 6.97 µM) | 2.1 to 4 µg/mL (≈ 3.66 to 6.97 µM)
CCOC(=O)c1sc2c(c1C)c(=O)n([C@H](C)C(N)=O)c(=O)n2C[C@H](OCCC#N)c1cc(F)ccc1OC [Compound I-26, ethyl 3-((R)-1-amino-1-oxopropan-2-yl)-1-((R)-2-(2-cyanoethoxy)-2-(5-fluoro-2-methoxyphenyl)ethyl)-5-methyl-2,4-dioxo-1,2,3,4-tetrahydrothieno[2,3-d]pyrimidine-6-carboxylate] | – | 3 to 10 nM | – | 0.3 to 3 nM | – | 2.1 to 4 µg/mL (≈ 3.84 to 7.32 µM) | – | > 4.1 µg/mL | – | 0.25 to 1 µg/mL (≈ 0.457 to 1.83 µM)
CCOC(=O)c1sc2c(c1C)c(=O)n(C(C)(C)C(N)=O)c(=O)n2C[C@H](OCCO)c1cc(F)ccc1OC [Compound I-17, (R)-ethyl 3-(1-amino-2-methyl-1-oxopropan-2-yl)-1-(2-(5-fluoro-2-methoxyphenyl)-2-(2-hydroxyethoxy)ethyl)-5-methyl-2,4-dioxo-1,2,3,4-tetrahydro-thieno[2,3-d]pyrimidine-6-carboxylate] | 10 to 40 nM | – | 0.6 to 3 nM | 0.3 to 3 nM | > 4.1 µg/mL | 2.1 to 4 µg/mL (≈ 3.81 to 7.25 µM) | > 4.1 µg/mL | 1.1 to 2 µg/mL (≈ 1.99 to 3.63 µM) | > 4.1 µg/mL | 2.1 to 4 µg/mL (≈ 3.81 to 7.25 µM)
CCOC(=O)c1sc2c(c1C)c(=O)n(C(C)(C)C(=O)NC(C)C)c(=O)n2C[C@H](O)c1cc(F)ccc1OC [Compound I-19, (R)-ethyl 1-(2-(5-fluoro-2-methoxyphenyl)-2-hydroxyethyl)-3-(1-(isopropylamino)-2-methyl-1-oxopropan-2-yl)-5-methyl-2,4-dioxo-1,2,3,4-tetrahydrothieno[2,3-d]pyrimidine-6-carboxylate] | – | 3 to 10 nM | – | – | – | 0.25 to 1 µg/mL (≈ 0.455 to 1.82 µM) | – | 2.1 to 4 µg/mL (≈ 3.82 to 7.28 µM) | – | 0.25 to 1 µg/mL (≈ 0.455 to 1.82 µM)
CCOC(=O)c1sc2c(c1C)c(=O)n(C(C)(C)C(=O)N1CCCCC1)c(=O)n2C[C@H](OC1CCOCC1)c1ccccc1OC [Compound I-2, ethyl (R)-1-(2-(2-methoxyphenyl)-2-((tetrahydro-2H-pyran-4-yl)oxy)ethyl)-5-methyl-3-(2-methyl-1-oxo-1-(piperidin-1-yl)propan-2-yl)-2,4-dioxo-1,2,3,4-tetrahydrothieno[2,3-d]pyrimidine-6-carboxylate] | 10 to 40 nM | 10 to 40 nM | 0.6 to 3 nM | 0.3 to 3 nM | 0.25 to 1 µg/mL (≈ 0.39 to 1.56 µM) | 0.25 to 1 µg/mL (≈ 0.39 to 1.56 µM) | 0.25 to 1 µg/mL (≈ 0.39 to 1.56 µM) | 0.25 to 1 µg/mL (≈ 0.39 to 1.56 µM) | 0.25 to 1 µg/mL (≈ 0.39 to 1.56 µM) | 0.25 to 1 µg/mL (≈ 0.39 to 1.56 µM)
CCOC(=O)c1sc2c(c1C)c(=O)n([C@H](C)C(=O)NC(C)C)c(=O)n2C[C@H](O)c1cc(F)ccc1OC [Compound I-43, ethyl 1-((R)-2-(5-fluoro-2-methoxyphenyl)-2-hydroxyethyl)-3-((R)-1-(isopropylamino)-1-oxopropan-2-yl)-5-methyl-2,4-dioxo-1,2,3,4-tetrahydrothieno[2,3-d]pyrimidine-6-carboxylate] | – | ≥ 40 nM | – | 0.3 to 3 nM | – | 2.1 to 4 µg/mL (≈ 3.92 to 7.47 µM) | – | 2.1 to 4 µg/mL (≈ 3.92 to 7.47 µM) | – | 2.1 to 4 µg/mL (≈ 3.92 to 7.47 µM)
